Laboratory results from PubChem BioAssay AID248 (DTP/NCI, 2004).
Toxic doses and inconclusive results are not listed. Cut-off read from the data, not from the text of the source: active = T/C of 150% or more; inactive = T/C below 125%.

Test system: L1210 leukemia ip in BDF1 mice, survival T/C
Experiment: NCI In Vivo Anticancer Drug Screen. Data for tumor model L1210 Leukemia (intraperitoneal) in B6D2F1 (BDF1) mice
Conditions: endpoint: mean survival time, higher = longer survival
In short: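 Read-out is survival time, reported as the treated-group measurement over the vehicle-control measurement.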

[1] = dose: 100.0 mg/kg/injection, schedule: Q01DX009 (ip), vehicle: Klucel (hydroxypropylcellulose) (HPC)
[2] = dose: 100.0 mg/kg/injection, schedule: Q04DX003 (ip), vehicle: Klucel (hydroxypropylcellulose) (HPC)
[3] = dose: 200.0 mg/kg/injection, schedule: Q01DX009 (ip), vehicle: Klucel (hydroxypropylcellulose) (HPC)
[4] = dose: 200.0 mg/kg/injection, schedule: Q04DX003 (ip), vehicle: Klucel (hydroxypropylcellulose) (HPC)
[5] = dose: 400.0 mg/kg/injection, schedule: Q01DX009 (ip), vehicle: Klucel (hydroxypropylcellulose) (HPC)
[6] = dose: 400.0 mg/kg/injection, schedule: Q04DX003 (ip), vehicle: Klucel (hydroxypropylcellulose) (HPC)
[7] = dose: 50.0 mg/kg/injection, schedule: Q01DX001 (ip), vehicle: carboxymethylcellulose (CMC)
[8] = dose: 100.0 mg/kg/injection, schedule: Q01DX001 (ip), vehicle: carboxymethylcellulose (CMC)
[9] = dose: 200.0 mg/kg/injection, schedule: Q01DX001 (ip), vehicle: carboxymethylcellulose (CMC)
[10] = dose: 400.0 mg/kg/injection, schedule: Q01DX001 (ip), vehicle: carboxymethylcellulose (CMC)
[11] = dose: 12.5 mg/kg/injection, schedule: Q04DX003 (ip), vehicle: acetone
[12] = dose: 50.0 mg/kg/injection, schedule: Q04DX003 (ip), vehicle: acetone

Measured: T/C

Cc1ccc(C)c(NS(=O)(=O)c2ccc(Cl)cc2)c1
inactive: [1] 102 % of control | [2] 107 % of control | [3] 98 % of control | [4] 113 % of control | [5] 98 % of control | [6] 113 % of control

Cc1cccc(C)c1NC(=O)Nc1ncccn1
inactive: dose: 25.0 mg/kg/injection, schedule: Q04DX002 (ip), vehicle: Klucel (hydroxypropylcellulose) (HPC) 99 % of control | dose: 50.0 mg/kg/injection, schedule: Q04DX002 (ip), vehicle: Klucel (hydroxypropylcellulose) (HPC) 96 % of control | [1] 103 % of control | dose: 100.0 mg/kg/injection, schedule: Q04DX002 (ip), vehicle: Klucel (hydroxypropylcellulose) (HPC) 105 % of control | [3] 104 % of control | dose: 200.0 mg/kg/injection, schedule: Q04DX002 (ip), vehicle: Klucel (hydroxypropylcellulose) (HPC) 97 % of control | [5] 101 % of control | dose: 400.0 mg/kg/injection, schedule: Q04DX002 (ip), vehicle: Klucel (hydroxypropylcellulose) (HPC) 93 % of control

CCOc1cc(C2=NNc3n[nH]c(=S)n3N2)ccc1O
inactive: [1] 94 % of control | [2] 96 % of control | [3] 98 % of control | [4] 103 % of control | [5] 97 % of control | [6] 102 % of control

CCOC(=O)c1ccc(OC)nc1
inactive: dose: 100.0 mg/kg/injection, schedule: Q01DX009 (ip), vehicle: saline 104 % of control | dose: 200.0 mg/kg/injection, schedule: Q01DX009 (ip), vehicle: saline 102 % of control | dose: 400.0 mg/kg/injection, schedule: Q01DX009 (ip), vehicle: saline 98 % of control

CC(=O)Oc1cc(NC(=O)c2ccccc2)ccc1NC(=O)c1ccccc1
inactive: dose: 100.0 mg/kg/injection, schedule: Q01DX001 (ip), vehicle: Klucel (hydroxypropylcellulose) (HPC) 93 % of control | [1] 89 % of control | dose: 200.0 mg/kg/injection, schedule: Q01DX001 (ip), vehicle: Klucel (hydroxypropylcellulose) (HPC) 92 % of control | [3] 90 % of control | dose: 400.0 mg/kg/injection, schedule: Q01DX001 (ip), vehicle: Klucel (hydroxypropylcellulose) (HPC) 104 % of control | [5] 100 % of control

O=NN(CCCl)C(=O)Nc1ccccc1NC(=O)N(CCCl)N=O
inactive: dose: 4.0 mg/kg/injection, schedule: Q01DX001 (ip), vehicle: carboxymethylcellulose (CMC) 122 % of control

CCOC(=O)C1(C(=O)OCC)C=C(CC)C(=O)OC1
inactive: [7] 111 % of control | [8] 100 % of control | [9] 113 % of control | [10] 105 % of control

OCC#CC(O)c1ccccc1 (stereo not drawn)
inactive: dose: 12.5 mg/kg/injection, schedule: Q01DX001 (ip), vehicle: acetone 94 % of control | dose: 12.5 mg/kg/injection, schedule: Q01DX009 (ip), vehicle: saline 94 % of control | [11] 97 % of control | dose: 12.5 mg/kg/injection, schedule: Q04DX003 (ip), vehicle: saline 96 % of control | dose: 25.0 mg/kg/injection, schedule: Q01DX001 (ip), vehicle: acetone 97 % of control | dose: 25.0 mg/kg/injection, schedule: Q01DX009 (ip), vehicle: saline 92 % of control | dose: 25.0 mg/kg/injection, schedule: Q04DX003 (ip), vehicle: saline 96 % of control | dose: 50.0 mg/kg/injection, schedule: Q01DX001 (ip), vehicle: acetone 92 % of control | dose: 50.0 mg/kg/injection, schedule: Q01DX009 (ip), vehicle: saline 95 % of control | [12] 95 % of control | dose: 50.0 mg/kg/injection, schedule: Q04DX003 (ip), vehicle: saline 95 % of control | dose: 75.0 mg/kg/injection, schedule: Q01DX009 (ip), vehicle: saline 98 % of control | dose: 115.0 mg/kg/injection, schedule: Q01DX009 (ip), vehicle: saline 107 % of control

COC1CCCCC1SCSC1CCCCC1OC (stereo not drawn)
inactive: dose: 100.0 mg/kg/injection, schedule: Q01DX009 (ip), vehicle: saline with Tween-80 90 % of control | dose: 400.0 mg/kg/injection, schedule: Q01DX009 (ip), vehicle: saline with Tween-80 88 % of control

Cc1cc(C)c(-c2cc(O)c(C)cc2O)c(C)c1
inactive: dose: 25.0 mg/kg/injection, schedule: Q01DX009 (ip), vehicle: other 103 % of control | dose: 50.0 mg/kg/injection, schedule: Q01DX009 (ip), vehicle: other 99 % of control | dose: 100.0 mg/kg/injection, schedule: Q01DX009 (ip), vehicle: other 101 % of control | dose: 200.0 mg/kg/injection, schedule: Q01DX009 (ip), vehicle: other 97 % of control | dose: 400.0 mg/kg/injection, schedule: Q01DX009 (ip), vehicle: other 100 % of control

O=C1NC2C3CCC(C3)C12 (stereo not drawn)
inactive: dose: 10.0 mg/kg/injection, schedule: Q04DX002 (ip), vehicle: saline 90 % of control | dose: 20.0 mg/kg/injection, schedule: Q04DX002 (ip), vehicle: saline 107 % of control | dose: 40.0 mg/kg/injection, schedule: Q04DX002 (ip), vehicle: saline 93 % of control

O=C(O)c1ccccc1C(=O)Nc1ccccc1[N+](=O)[O-]
inactive: dose: 100.0 mg/kg/injection, schedule: Q01DX001 (ip), vehicle: saline with Tween-80 91 % of control | dose: 200.0 mg/kg/injection, schedule: Q01DX001 (ip), vehicle: saline with Tween-80 91 % of control | dose: 400.0 mg/kg/injection, schedule: Q01DX001 (ip), vehicle: saline with Tween-80 91 % of control

CSCCC(NC(=O)CNC(=O)OCc1ccccc1)C(=O)O (stereo not drawn)
inactive: dose: 100.0 mg/kg/injection, schedule: Q04DX003 (ip), vehicle: saline with Tween-80 106 % of control | dose: 200.0 mg/kg/injection, schedule: Q04DX003 (ip), vehicle: saline with Tween-80 95 % of control | dose: 400.0 mg/kg/injection, schedule: Q04DX003 (ip), vehicle: saline with Tween-80 107 % of control

CC1(O)CCCCCC1
inactive: [7] 107 % of control | [8] 100 % of control | [9] 94 % of control | [10] 89 % of control

CCOc1ccc(C(/C(Cl)=N/O)C(Cl)(Cl)Cl)cc1 (stereo not drawn)
inactive: [11] 93 % of control | dose: 25.0 mg/kg/injection, schedule: Q04DX003 (ip), vehicle: acetone 97 % of control | [12] 92 % of control

O=C1Nc2ccc(Cl)cc2C1=O
inactive: dose: 75.0 mg/kg/injection, schedule: Q01DX001 (ip), vehicle: saline 90 % of control | dose: 150.0 mg/kg/injection, schedule: Q01DX001 (ip), vehicle: saline 93 % of control | dose: 300.0 mg/kg/injection, schedule: Q01DX001 (ip), vehicle: saline 93 % of control

CN(C)CCOC(=O)c1cc(CCBr)cc(CCBr)c1
inactive: dose: 2.5 mg/kg/injection, schedule: Q01DX009 (ip), vehicle: saline 92 % of control | dose: 5.0 mg/kg/injection, schedule: Q01DX009 (ip), vehicle: saline 97 % of control | dose: 10.0 mg/kg/injection, schedule: Q01DX009 (ip), vehicle: Klucel (hydroxypropylcellulose) (HPC) 95 % of control | dose: 10.0 mg/kg/injection, schedule: Q01DX009 (ip), vehicle: saline 94 % of control

CN(C)c1ccc(C=C2/C(=N\O)c3ccccc3/C2=N/O)cc1
inactive: [1] 98 % of control | [3] 96 % of control | [5] 94 % of control

Cc1cc(C)c2[nH]c(=O)c(C)c(C)c2c1
inactive: dose: 100.0 mg/kg/injection, schedule: Q01DX001 (ip), vehicle: other 104 % of control | dose: 200.0 mg/kg/injection, schedule: Q01DX001 (ip), vehicle: other 95 % of control | dose: 400.0 mg/kg/injection, schedule: Q01DX001 (ip), vehicle: other 95 % of control
